# Experimental data: patent US9845291B2, “Estrogen receptor modulators and uses thereof” (Genentech, Inc., priority 2014, dated 2017)
# Target: estrogen receptor alpha (ESR1) (Homo sapiens, UniProt P03372)
# Assay: cell-based
# Details: for ER-alpha MCF7 HCS Sinf: MCF7 breast cancer cells, 4 hours, plateau of the maximal effect, DMSO and Fulvestrant define 0% and 100% changes in ESR1
# Method: Where more than one name is associated with a Formula I compound or intermediate, the chemical structure shall define the compound.
# Cell plates were incubated at 37° C., for 4 hours. Fixation and permeabilization were carried out using a Biotek EL406 plate washer and dispenser as follows. […] Samples were incubated 30 minutes. Well contents was aspirated and 50 ul/well of Phosphate Buffered Saline (PBS) containing 0.5% w/v bovine serum albumen, 0.5% v/v Triton X-100 (Antibody Dilution Buffer) was added to each well. Samples were incubated for 30 minutes. Well contents were aspirated and washed 3 times with 100 ul/well of PBS. Immunofluorescence staining of estrogen receptor alpha (ESR1) was carried out using a Biotek EL406 plate washer and dispenser as follows. […] Samples were incubated for 2 hours at room temperature. Samples were washed 4 times with 100 ul/well of PBS. […] Samples were incubated for 2 hours at room temperature. Samples were washed 3 times with 100 ul/well of PBS using a Biotek EL406. Quantitative fluorescence imaging of ESR1 was carried out using a Cellomics Arrayscan V (Thermo). […] Channel 1 (DNA stain) was used to define the nuclear region (Circ). […] Data analysis was carried out using Genedata Screener Software, with DMSO and 5 nM Fulvestrant treated samples being used to define the 0% and 100% changes in ESR1. The “Robust Fit” method was used to define the inflexion point of curve (EC50) and the plateau of the maximal effect (Sin f).
# Sequence of estrogen receptor alpha (ESR1) (P03372 whole entry): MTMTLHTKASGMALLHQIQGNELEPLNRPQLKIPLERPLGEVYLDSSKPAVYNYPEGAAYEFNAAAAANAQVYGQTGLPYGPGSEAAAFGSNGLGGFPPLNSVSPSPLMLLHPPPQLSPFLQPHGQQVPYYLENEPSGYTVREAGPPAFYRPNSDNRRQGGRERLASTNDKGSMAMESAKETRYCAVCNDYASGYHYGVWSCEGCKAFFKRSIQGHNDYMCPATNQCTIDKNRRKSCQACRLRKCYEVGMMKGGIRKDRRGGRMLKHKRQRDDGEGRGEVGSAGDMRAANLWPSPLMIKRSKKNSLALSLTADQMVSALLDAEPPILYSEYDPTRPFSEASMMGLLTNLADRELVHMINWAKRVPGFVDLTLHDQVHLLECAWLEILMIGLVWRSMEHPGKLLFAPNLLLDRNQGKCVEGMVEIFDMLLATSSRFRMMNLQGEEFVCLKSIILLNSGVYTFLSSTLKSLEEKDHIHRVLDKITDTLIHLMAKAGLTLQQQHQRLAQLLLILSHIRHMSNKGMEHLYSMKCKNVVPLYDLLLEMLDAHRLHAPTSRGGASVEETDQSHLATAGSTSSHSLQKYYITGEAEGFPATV
Compound,EC50 [pM],ER-alpha MCF7 HCS Sinf [%]
"O=C(c1ccc(OCCN2CC(CF)C2)cc1)c1c(-c2ccc(F)cc2)sc2cc(O)ccc12 [Example 10, (4-(2-(3-(fluoromethyl)azetidin-1-yl)ethoxy)phenyl)(2-(4-fluorophenyl)-6-hydroxyhenzo[b]thiophen-3-yl)methanone]",450,−96
"Cc1cc(-c2c(C)c3cc(O)ccc3n2Cc2ccc(OCCN3CC[C@@H](CF)C3)cc2)ccc1O [Example 42, (R)-1-(4-(2-(3-(fluoromethyl)pyrrolidin-1-yl)ethoxy)benzyl)-2-(4-hydroxy-3-methylphenyl)-3-methyl-1H-indol-5-ol]",25,−97.5
"Oc1cccc([C@H]2Sc3c(ccc(O)c3F)O[C@H]2c2ccc(OCCN3CC(CF)C3)cc2)c1 [Example 58, (2S,3R)-5-fluoro-2-(4-(2-(3-(fluoromethyl)azetidin-1-yl)ethoxy)phenyl)-3-(3-hydroxyphenyl)-2,3-dihydrobenzo[b][1,4]oxathiin-6-ol]",26,−99.8
"CC/C(=C(\c1ccccc1)c1ccc(OCCN2CC[C@@H](CF)C2)cc1)c1ccccc1 [Example 19, (R,Z)-1-(2-(4-(1,2-Diphenylbut-1-en-yl)phenoxy)ethyl)-3-(fluoromethyl)pyrrolidine]",15000,−75
"Oc1ccc(-c2sc3cc(O)ccc3c2Oc2ccc(OCCN3CC(CF)C3)cc2)cc1 [Example 11, 3-(4-(2-(3-(Fluoromethyl)azetidin-1-yl)ethoxy)phenoxy)-2-(4-hydroxyphenyl)benzo[b]thiophen-6-ol]",130,−94
"O=C(c1ccc(OCCN2CC(CF)C2)cc1)c1c(-c2ccccc2)sc2cc(O)ccc12 [Example 39, (4-(2-(3-(fluoromethyl)azetidin-1-yl)ethoxy)phenyl)(6-hydroxy-2-phenylbenzo[b]thiophen-3-yl)methanone]",1600,−96
"CC/C(=C(\c1ccc(O)cc1)c1ccc(OC[C@H](C)N2CC[C@@H](CF)C2)cc1)c1ccccc1 [Example 24, 4-((Z)-1-(4-((S)-2-((R)-3-(Fluoromethyl)pyrrolidin-1-yl)propoxy)phenyl)-2-phenylbut-1-en-1-yl)phenol]",180,−58
"Cc1c(-c2ccc(O)c(F)c2)n(Cc2ccc(OC[C@H](C)N3CC[C@@H](CF)C3)cc2)c2ccc(O)cc12 [Example 45, 2-(3-fluoro-4-hydroxy-phenyl)-1-[[4-[(2S)-2-[(3R)-3-(fluoromethyl)pyrrolidin-1-yl]propoxy]phenyl]methyl]-3-methyl-indol-5-ol]",6.32,−97.5
"Oc1ccc2c(c1)CC[C@H](c1ccccc1)[C@@H]2c1ccc(OCCN2CC(CF)C2)cc1 (racemic) [Example 34, cis-5-(4-(2-(3-(Fluoromethyl)azetidin-1-yl)ethoxy)phenyl)-6-phenyl-5,6,7,8-tetrahydronaphthalen-2-ol]",16,−99.3
"Cc1c(-c2ccc(O)c(F)c2)n(Cc2ccc(OCCN3CC[C@@H](CF)C3)cc2)c2ccc(O)cc12 [Example 44, 2-(3-fluoro-4-hydroxy-phenyl)-1-[[4-[2-[(3R)-3-(fluoromethyl)pyrrolidin-1-yl]ethoxy]phenyl]methyl]-3-methyl-indol-5-ol]",27.8,−98.1
"Cc1c(-c2ccc(O)cc2)n(Cc2ccc(OCCN3CC(CF)C3)cc2)c2ccc(O)c(F)c12 [Example 48, 4-fluoro-1-[[4-[2-[3-(fluoromethyl)azetidin-1-yl]ethoxy]phenyl]methyl]-2-(4-hydroxyphenyl)-3-methyl-indol-5-ol]",662,−92.8
"Oc1ccc([C@H]2Sc3cc(O)ccc3O[C@H]2c2ccc(OCCN3CC[C@@H](CF)C3)cc2)cc1 (racemic) [Example 28, 2-(4-(2-((R)-3-(Fluoromethyl)pyrrolidin-1-yl)ethoxy)phenyl)-3-(4-hydroxyphenyl)-2,3-dihydrobenzo[b][1,4]oxathiin-6-ol]",1000,−97
"Cc1cc(F)ccc1-c1sc2cc(O)ccc2c1C(=O)c1ccc(OCCN2CC(CF)C2)cc1 [Example 38, (2-(4-fluoro-2-methylphenyl)-6-hydroxybenzo[b]thiophen-3-yl)(4-(2-(3-(fluoromethyl)azetidin-1-yl)ethoxy)phenyl)methanone]",880,−96
"Cc1cc(-c2sc3cc(O)ccc3c2C(=O)c2ccc(OCCN3CC(CF)C3)cc2)ccc1F [Example 36, (2-(4-fluoro-3-methylphenyl)-6-hydroxybenzo[b]thiophen-3-yl)(4-(2-(3-(fluoromethyl)azetidin-1-yl)ethoxy)phenyl)methanone]",2500,−97
"Cc1c(-c2ccccc2)n(Cc2ccc(OCCN3CC(CF)C3)cc2)c2ccccc12 [Example 4, 1-(4-(2-(3-(Fluoromethyl)azetidin-1-yl)ethoxy)benzyl)-3-methyl-2-phenyl-1H-indole]",200000,−81
"Oc1ccc2c(c1)C1=C(c3cc(O)ccc3OCC1)[C@H](c1ccc(OCCN3CC(CF)C3)cc1)O2 [Example 74, (S)-8-(4-(2-(3-(fluoromethyl)azetidin-1-yl)ethoxy)phenyl)-1,8-dihydro-2H-benzo[2,3]oxepino[4,5-c]chromene-6,12-diol]",190,−93.3
"O=C(c1ccc(OCCN2CC(CF)C2)cc1)c1c(-c2ccc(F)c(Cl)c2)sc2cc(O)ccc12 [Example 37, (2-(3-chloro-4-fluorophenyl)-6-hydroxybenzo[b]thiophen-3-yl)(4-(2-(3-(fluoromethyl)azetidin-1-yl)ethoxy)phenyl)methanone]",4400,−97
"O=C(c1ccc(OCCN2CC(CF)C2)cc1)c1c(-c2ccc(O)cc2)sc2cc(O)ccc12 [Example 9, (4-(2-(3-(fluoromethyl)azetidin-1-yl)ethoxy)phenyl)(6-hydroxy-2-(4-hydroxyphenyl)benzo[b]thiophen-3-yl)methanone]",1100,−97
"O=C(c1ccc(OCCN2CC(CF)C2)c(F)c1)c1c(-c2ccccc2Cl)nsc1-c1ccc(O)cc1 [Example 72, [3-(2-Chloro-phenyl)-5-(4-hydroxy-phenyl)-isothiazol-4-yl]-{3-fluoro-4-[2-(3-fluoromethyl-azetidin-1-yl)-ethoxy]-phenyl}-methanone]",15.9,−99.0
"FC[C@@H]1CCN(CCOc2ccc(/C(=C(\c3ncc(C(F)(F)F)cc3Cl)C3CCC3)c3ccc4[nH]nc(F)c4c3)cc2)C1 [Example 27, (R,E)-5-(2-(3-Chloro-5-(trifluoromethyl)pyridin-2-yl)-2-cyclobutyl-1-(4-(2-(3-(fluoromethyl)pyrrolidin-1-yl)ethoxy)phenyl)vinyl)-3-fluoro-1H-indazole]",850,−73
"Cc1cc(O)ccc1-c1c(C)c2cc(O)ccc2n1Cc1ccc(OCCN2CC(CF)C2)cc1 [Example 57, 1-[[4-[2-[3-(fluoromethyl)azetidin-1-yl]ethoxy]phenyl]methyl]-2-(4-hydroxy-2-methyl-phenyl)-3-methyl-indol-5-ol]",46.9,−93.4
"O=C(C1=C(c2ccc(O)cc2)CCc2cc(O)ccc21)c1ccc(OCCN2CC(CF)C2)cc1 [Example 32, (4-(2-(3-(Fluoromethyl)azetidin-1-yl)ethoxy)phenyl)(6-hydroxy-2-(4-hydroxyphenyl)-3,4-dihydronaphthalen-1-yl)methanone]",190,−101
"Oc1ccc2c(c1)O[C@@H](c1ccc(OCCN3CC(CF)C3)cc1)C1=C2CCOc2ccc(O)cc21 [Example 78, (S)-8-(4-(2-(3-(fluoromethyl)azetidin-1-yl)ethoxy)phenyl)-2,8-dihydro-1H-benzo[2,3]oxepino[4,5-c]chromene-6,11-diol]",611,−90.0
"Cc1c(-c2ccc(O)cc2Cl)n(Cc2ccc(OCCN3CC[C@@H](CF)C3)cc2)c2ccc(O)cc12 [Example 55, 2-(2-chloro-4-hydroxyphenyl)-1-(4-(2-((R)-3-(fluoromethyl)pyrrolidin-1-yl)ethoxy)benzyl)-3-methyl-1H-indol-5-ol]",19.9,−98.7
"O=C(c1ccc(OCCN2CC(CF)C2)c(F)c1)c1c(-c2ccccc2Cl)noc1-c1ccc(O)cc1 [Example 17, [3-(2-Chloro-phenyl)-5-(4-hydroxy-phenyl)-isoxazol-4-yl]-{3-fluoro-4-[2-(3-fluoromethyl-azetidin-1-yl)-ethoxy]-phenyl}-methanone]",300,−102
"Cc1c(-c2ccc(O)cc2)n(Cc2ccc(OCCN3CC(CF)C3)cc2)c2ccc(O)cc12 [Example 1, 1-(4-(2-(3-(Fluoromethyl)azetidin-1-yl)ethoxy)benzyl)-2-(4-hydroxyphenyl)-3-methyl-1H-indol-5-ol]",460,−95
